Laboratory results: ChEMBL document CHEMBL5724806, “Unraveling interindividual differences and functional consequences of gut microbial metabolism of immunosuppressants” (2024)

What was measured:
Format in all cases: ADME
[1] = The drug is tested on Collinsella aerofaciens strain: DSM3979 for biotransformation under anaerobic condition. The drug concentrations were measured over 6 timepoints collected between 0 and 12 hours of incubation by liquid-chromatography-coupled mass spectrometry (LC–MS); set-up: dose 5 uM, timepoint 0, 1.5, 3, 6, 9, 12 hours; details: 5 µM
[2] = The drug is tested on Capnocytophaga ochracea strain: DSM7271 for biotransformation under anaerobic condition. The drug concentrations were measured over 6 timepoints collected between 0 and 12 hours of incubation by liquid-chromatography-coupled mass spectrometry (LC–MS); set-up: dose 5 uM, timepoint 0, 1.5, 3, 6, 9, 12 hours; details: 5 µM
[3] = The drug is tested on Odoribacter splanchnicus strain: DSM20712 for biotransformation under anaerobic condition. The drug concentrations were measured over 6 timepoints collected between 0 and 12 hours of incubation by liquid-chromatography-coupled mass spectrometry (LC–MS); set-up: dose 5 uM, timepoint 0, 1.5, 3, 6, 9, 12 hours; details: 5 µM
[4] = The drug is tested on Parabacteroides merdae strain: DSM19495 for biotransformation under anaerobic condition. The drug concentrations were measured over 6 timepoints collected between 0 and 12 hours of incubation by liquid-chromatography-coupled mass spectrometry (LC–MS); set-up: dose 5 uM, timepoint 0, 1.5, 3, 6, 9, 12 hours; details: 5 µM
[5] = The drug is tested on Prevotella copri strain: DSM18205 for biotransformation under anaerobic condition. The drug concentrations were measured over 6 timepoints collected between 0 and 12 hours of incubation by liquid-chromatography-coupled mass spectrometry (LC–MS); set-up: dose 5 uM, timepoint 0, 1.5, 3, 6, 9, 12 hours; details: segatella copri, 5 µM
[6] = The drug is tested on Eubacterium rectale strain: DSM17629 for biotransformation under anaerobic condition. The drug concentrations were measured over 6 timepoints collected between 0 and 12 hours of incubation by liquid-chromatography-coupled mass spectrometry (LC–MS); set-up: dose 5 uM, timepoint 0, 1.5, 3, 6, 9, 12 hours; details: agathobacter rectalis, 5 µM
[7] = The drug is tested on Lactobacillus paracasei strain: ATCC27092 for biotransformation under anaerobic condition. The drug concentrations were measured over 6 timepoints collected between 0 and 12 hours of incubation by liquid-chromatography-coupled mass spectrometry (LC–MS); set-up: dose 5 uM, timepoint 0, 1.5, 3, 6, 9, 12 hours; details: lacticaseibacillus paracasei, 5 µM
[8] = The drug is tested on Ruminococcus gnavus strain: ATCC29149 for biotransformation under anaerobic condition. The drug concentrations were measured over 6 timepoints collected between 0 and 12 hours of incubation by liquid-chromatography-coupled mass spectrometry (LC–MS); set-up: dose 5 uM, timepoint 0, 1.5, 3, 6, 9, 12 hours; details: mediterraneibacter gnavus, 5 µM
[9] = The drug is tested on Streptococcus anginosus strain: DSM20563 for biotransformation under anaerobic condition. The drug concentrations were measured over 6 timepoints collected between 0 and 12 hours of incubation by liquid-chromatography-coupled mass spectrometry (LC–MS); set-up: dose 5 uM, timepoint 0, 1.5, 3, 6, 9, 12 hours; details: 5 µM
[10] = The drug is tested on Streptococcus sanguinis strain: DSM20567 for biotransformation under anaerobic condition. The drug concentrations were measured over 6 timepoints collected between 0 and 12 hours of incubation by liquid-chromatography-coupled mass spectrometry (LC–MS); set-up: dose 5 uM, timepoint 0, 1.5, 3, 6, 9, 12 hours; details: 5 µM
[11] = The drug is tested on Actinomyces graevenitzii strain: DSM15540 for biotransformation under microaerobic condition. The drug concentrations were measured over 6 timepoints collected between 0 and 12 hours of incubation by liquid-chromatography-coupled mass spectrometry (LC–MS); set-up: dose 5 uM, timepoint 0, 1.5, 3, 6, 9, 12 hours; details: 5 µM
[12] = The drug is tested on Lactobacillus gasseri strain: DSM20243 for biotransformation under microaerobic condition. The drug concentrations were measured over 6 timepoints collected between 0 and 12 hours of incubation by liquid-chromatography-coupled mass spectrometry (LC–MS); set-up: dose 5 uM, timepoint 0, 1.5, 3, 6, 9, 12 hours; details: 5 µM
[13] = The drug is tested on Lactobacillus reuteri strain: DSM20016 for biotransformation under microaerobic condition. The drug concentrations were measured over 6 timepoints collected between 0 and 12 hours of incubation by liquid-chromatography-coupled mass spectrometry (LC–MS); set-up: dose 5 uM, timepoint 0, 1.5, 3, 6, 9, 12 hours; details: limosilactobacillus reuteri, 5 µM
[14] = The drug is tested on Streptococcus salivarius strain: DSM20560 for biotransformation under microaerobic condition. The drug concentrations were measured over 6 timepoints collected between 0 and 12 hours of incubation by liquid-chromatography-coupled mass spectrometry (LC–MS); set-up: dose 5 uM, timepoint 0, 1.5, 3, 6, 9, 12 hours; details: 5 µM
[15] = The drug is tested on Streptococcus sanguinis strain: DSM20567 for biotransformation under microaerobic condition. The drug concentrations were measured over 6 timepoints collected between 0 and 12 hours of incubation by liquid-chromatography-coupled mass spectrometry (LC–MS); set-up: dose 5 uM, timepoint 0, 1.5, 3, 6, 9, 12 hours; details: 5 µM
[16] = The drug is tested on the gut metagenome community of A-04 with ENA study accession number: PRJEB31790 for biotransformation under anaerobic condition. The drug concentrations were measured over 7 timepoints collected between 0 and 12 hours of incubation by liquid-chromatography-coupled mass spectrometry (LC–MS); set-up: dose 5 uM, timepoint 0, 0.75, 1.5, 3, 6, 9, 12 hours; details: 5 µM
[17] = The drug is tested on the gut metagenome community of A-06 with ENA study accession number: PRJEB31790 for biotransformation under anaerobic condition. The drug concentrations were measured over 7 timepoints collected between 0 and 12 hours of incubation by liquid-chromatography-coupled mass spectrometry (LC–MS); set-up: dose 5 uM, timepoint 0, 0.75, 1.5, 3, 6, 9, 12 hours; details: 5 µM
[18] = The drug is tested on the gut metagenome community of P-01 with ENA study accession number: PRJEB31790 for biotransformation under anaerobic condition. The drug concentrations were measured over 7 timepoints collected between 0 and 12 hours of incubation by liquid-chromatography-coupled mass spectrometry (LC–MS); set-up: dose 5 uM, timepoint 0, 0.75, 1.5, 3, 6, 9, 12 hours; details: 5 µM
[19] = The drug is tested on the gut metagenome community of P-03 with ENA study accession number: PRJEB31790 for biotransformation under anaerobic condition. The drug concentrations were measured over 7 timepoints collected between 0 and 12 hours of incubation by liquid-chromatography-coupled mass spectrometry (LC–MS); set-up: dose 5 uM, timepoint 0, 0.75, 1.5, 3, 6, 9, 12 hours; details: 5 µM
[20] = The drug is tested on the gut metagenome community of T-02 with ENA study accession number: PRJEB31790 for biotransformation under anaerobic condition. The drug concentrations were measured over 7 timepoints collected between 0 and 12 hours of incubation by liquid-chromatography-coupled mass spectrometry (LC–MS); set-up: dose 5 uM, timepoint 0, 0.75, 1.5, 3, 6, 9, 12 hours; details: 5 µM
[21] = The drug is tested on the gut metagenome community of T-03 with ENA study accession number: PRJEB31790 for biotransformation under anaerobic condition. The drug concentrations were measured over 7 timepoints collected between 0 and 12 hours of incubation by liquid-chromatography-coupled mass spectrometry (LC–MS); set-up: dose 5 uM, timepoint 0, 0.75, 1.5, 3, 6, 9, 12 hours; details: 5 µM
[22] = The drug is tested on the gut metagenome community of T-04 with ENA study accession number: PRJEB31790 for biotransformation under anaerobic condition. The drug concentrations were measured over 7 timepoints collected between 0 and 12 hours of incubation by liquid-chromatography-coupled mass spectrometry (LC–MS); set-up: dose 5 uM, timepoint 0, 0.75, 1.5, 3, 6, 9, 12 hours; details: 5 µM
[23] = The drug is tested on the gut metagenome community of A-01 with ENA study accession number: PRJEB31790 for biotransformation under microaerobic condition. The drug concentrations were measured over 7 timepoints collected between 0 and 12 hours of incubation by liquid-chromatography-coupled mass spectrometry (LC–MS); set-up: dose 5 uM, timepoint 0, 0.75, 1.5, 3, 6, 9, 12 hours; details: 5 µM
[24] = The drug is tested on the gut metagenome community of A-10 with ENA study accession number: PRJEB31790 for biotransformation under microaerobic condition. The drug concentrations were measured over 7 timepoints collected between 0 and 12 hours of incubation by liquid-chromatography-coupled mass spectrometry (LC–MS); set-up: dose 5 uM, timepoint 0, 0.75, 1.5, 3, 6, 9, 12 hours; details: 5 µM
[25] = The drug is tested on the gut metagenome community of T-02 with ENA study accession number: PRJEB31790 for biotransformation under microaerobic condition. The drug concentrations were measured over 7 timepoints collected between 0 and 12 hours of incubation by liquid-chromatography-coupled mass spectrometry (LC–MS); set-up: dose 5 uM, timepoint 0, 0.75, 1.5, 3, 6, 9, 12 hours; details: 5 µM

| SMILES | Bacterial Biotransformation [1] | Bacterial Biotransformation [2] | Bacterial Biotransformation [3] | Bacterial Biotransformation [4] | Bacterial Biotransformation [5] | Bacterial Biotransformation [6] | Bacterial Biotransformation [7] | Bacterial Biotransformation [8] | Bacterial Biotransformation [9] | Bacterial Biotransformation [10] | Bacterial Biotransformation [11] | Bacterial Biotransformation [12] | Bacterial Biotransformation [13] | Bacterial Biotransformation [14] | Bacterial Biotransformation [15] | Bacterial Biotransformation [16] | Bacterial Biotransformation [17] | Bacterial Biotransformation [18] | Bacterial Biotransformation [19] | Bacterial Biotransformation [20] | further results |
| --- | --- | --- | --- | --- | --- | --- | --- | --- | --- | --- | --- | --- | --- | --- | --- | --- | --- | --- | --- | --- | --- |
| CCOC(=O)C1=C(COCCN)NC(C)=C(C(=O)OC)C1c1ccccc1Cl (stereo not given) [AMLODIPINE] | Compound NOT metabolized | Compound NOT metabolized | Compound metabolized | Compound NOT metabolized | Compound NOT metabolized | Compound NOT metabolized | Compound NOT metabolized | Compound NOT metabolized | Compound NOT metabolized | Compound NOT metabolized | Compound NOT metabolized | Compound NOT metabolized | Compound NOT metabolized | Compound NOT metabolized | Compound NOT metabolized | Compound NOT metabolized | Compound NOT metabolized | Compound NOT metabolized | Compound NOT metabolized | Compound NOT metabolized | Bacterial Biotransformation [21]: Compound NOT metabolized; Bacterial Biotransformation [22]: Compound NOT metabolized; Bacterial Biotransformation [23]: Compound NOT metabolized; Bacterial Biotransformation [24]: Compound NOT metabolized; Bacterial Biotransformation [25]: Compound NOT metabolized |
| CC(C)NCC(O)COc1ccc(CC(N)=O)cc1 (stereo not given) [ATENOLOL] | Compound NOT metabolized | Compound NOT metabolized | Compound NOT metabolized | Compound NOT metabolized | Compound NOT metabolized | Compound NOT metabolized | Compound NOT metabolized | Compound NOT metabolized | Compound NOT metabolized | Compound NOT metabolized | Compound NOT metabolized | Compound NOT metabolized | Compound NOT metabolized | Compound NOT metabolized | Compound NOT metabolized | Compound NOT metabolized | Compound NOT metabolized | Compound NOT metabolized | Compound NOT metabolized | Compound NOT metabolized | Bacterial Biotransformation [21]: Compound NOT metabolized; Bacterial Biotransformation [22]: Compound NOT metabolized; Bacterial Biotransformation [23]: Compound NOT metabolized; Bacterial Biotransformation [24]: Compound NOT metabolized; Bacterial Biotransformation [25]: Compound NOT metabolized |
